What was measured:
Experiment in all cases: Kinase assay, 1 mM ATP
Format in all cases: biochemical
[1] = biological target: ABL (Homo sapiens, UniProt P00519)
Experimental: (§1) An off-chip mobility shift assay was performed by Carna Biosciences, Inc. (Kobe, Japan), according to their product instructions. […] The IC50 values were estimated according to the four-parameter logistic model.

[2] = biological target: T1, AXL (Homo sapiens, UniProt P30530)
T1 construct: purchased Carna Biosciences
Experimental: as §1

[3] = biological target: AurA (Homo sapiens, UniProt O14965)
Experimental: as §1

[4] = biological target: BRSK1 (Homo sapiens, UniProt Q8TDC3)
Experimental: as §1

[5] = biological target: BTK (Homo sapiens, UniProt Q06187)
Chain of BTK (Q06187 whole entry): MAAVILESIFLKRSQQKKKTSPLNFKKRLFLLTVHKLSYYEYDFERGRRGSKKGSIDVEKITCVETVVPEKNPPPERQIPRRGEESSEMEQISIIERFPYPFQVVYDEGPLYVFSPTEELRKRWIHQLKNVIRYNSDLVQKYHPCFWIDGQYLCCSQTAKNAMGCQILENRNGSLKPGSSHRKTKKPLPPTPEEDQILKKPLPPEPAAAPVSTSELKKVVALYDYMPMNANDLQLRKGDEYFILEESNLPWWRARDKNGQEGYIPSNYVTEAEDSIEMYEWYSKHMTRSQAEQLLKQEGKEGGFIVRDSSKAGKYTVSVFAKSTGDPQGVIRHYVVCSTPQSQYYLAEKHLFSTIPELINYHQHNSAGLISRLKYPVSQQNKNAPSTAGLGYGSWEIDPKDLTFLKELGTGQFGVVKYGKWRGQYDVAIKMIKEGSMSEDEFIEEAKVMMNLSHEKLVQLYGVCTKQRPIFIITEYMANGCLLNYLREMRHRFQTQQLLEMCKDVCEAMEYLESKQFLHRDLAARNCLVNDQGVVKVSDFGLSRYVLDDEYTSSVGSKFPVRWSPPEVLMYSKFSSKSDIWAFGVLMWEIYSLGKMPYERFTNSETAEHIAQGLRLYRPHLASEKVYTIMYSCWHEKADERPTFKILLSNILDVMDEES
Experimental: as §1

[6] = biological target: CDC2/CycB1 (Homo sapiens, UniProt P06493)
Experimental: as §1

[7] = biological target: CDK2/CycA2 (Homo sapiens, UniProt P24941)
Experimental: as §1

[8] = biological target: CK1α (Homo sapiens, UniProt P48729)
Chain of CK1α (P48729 whole entry): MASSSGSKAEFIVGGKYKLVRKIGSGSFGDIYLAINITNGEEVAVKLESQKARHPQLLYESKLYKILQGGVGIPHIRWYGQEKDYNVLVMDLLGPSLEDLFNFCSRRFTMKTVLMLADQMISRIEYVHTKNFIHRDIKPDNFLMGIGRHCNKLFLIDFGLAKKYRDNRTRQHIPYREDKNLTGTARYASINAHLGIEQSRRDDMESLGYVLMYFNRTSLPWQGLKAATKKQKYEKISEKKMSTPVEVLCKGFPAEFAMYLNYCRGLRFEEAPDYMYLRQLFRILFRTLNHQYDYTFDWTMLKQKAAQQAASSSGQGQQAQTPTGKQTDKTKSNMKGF
Experimental: as §1

[9] = biological target: CK1ε (Homo sapiens, UniProt P49674)
Experimental: as §1

[10] = biological target: CLK2 (Homo sapiens, UniProt P49760)
Chain of CLK2 (P49760 whole entry): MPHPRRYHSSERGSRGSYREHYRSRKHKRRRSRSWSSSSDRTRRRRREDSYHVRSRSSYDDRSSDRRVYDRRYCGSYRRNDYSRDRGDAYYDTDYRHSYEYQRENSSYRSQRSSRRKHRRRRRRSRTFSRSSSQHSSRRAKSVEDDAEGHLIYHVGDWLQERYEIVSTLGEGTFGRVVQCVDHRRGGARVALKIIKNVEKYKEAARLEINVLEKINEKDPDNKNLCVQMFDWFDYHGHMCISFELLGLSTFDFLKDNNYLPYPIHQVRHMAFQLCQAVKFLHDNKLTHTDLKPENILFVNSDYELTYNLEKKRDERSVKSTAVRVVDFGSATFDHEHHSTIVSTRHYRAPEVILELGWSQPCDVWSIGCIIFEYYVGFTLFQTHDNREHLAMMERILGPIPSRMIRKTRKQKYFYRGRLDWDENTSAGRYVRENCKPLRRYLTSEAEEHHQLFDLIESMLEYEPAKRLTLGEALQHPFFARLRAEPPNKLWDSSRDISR
Experimental: as §1

[11] = biological target: CSK (Homo sapiens, UniProt P41240)
Experimental: as §1

[12] = biological target: CaMK4 (Homo sapiens, UniProt Q16566)
Experimental: as §1

[13] = biological target: T2, EGFR(L858R) (Homo sapiens, UniProt P00533, L858R)
T2 construct: purchased Carna Biosciences
Experimental: as §1

[14] = biological target: EPHA1 (Homo sapiens, UniProt P21709)
Experimental: as §1

[15] = biological target: EPHA2 (Homo sapiens, UniProt P29317)
Chain of EPHA2 (P29317 24-976): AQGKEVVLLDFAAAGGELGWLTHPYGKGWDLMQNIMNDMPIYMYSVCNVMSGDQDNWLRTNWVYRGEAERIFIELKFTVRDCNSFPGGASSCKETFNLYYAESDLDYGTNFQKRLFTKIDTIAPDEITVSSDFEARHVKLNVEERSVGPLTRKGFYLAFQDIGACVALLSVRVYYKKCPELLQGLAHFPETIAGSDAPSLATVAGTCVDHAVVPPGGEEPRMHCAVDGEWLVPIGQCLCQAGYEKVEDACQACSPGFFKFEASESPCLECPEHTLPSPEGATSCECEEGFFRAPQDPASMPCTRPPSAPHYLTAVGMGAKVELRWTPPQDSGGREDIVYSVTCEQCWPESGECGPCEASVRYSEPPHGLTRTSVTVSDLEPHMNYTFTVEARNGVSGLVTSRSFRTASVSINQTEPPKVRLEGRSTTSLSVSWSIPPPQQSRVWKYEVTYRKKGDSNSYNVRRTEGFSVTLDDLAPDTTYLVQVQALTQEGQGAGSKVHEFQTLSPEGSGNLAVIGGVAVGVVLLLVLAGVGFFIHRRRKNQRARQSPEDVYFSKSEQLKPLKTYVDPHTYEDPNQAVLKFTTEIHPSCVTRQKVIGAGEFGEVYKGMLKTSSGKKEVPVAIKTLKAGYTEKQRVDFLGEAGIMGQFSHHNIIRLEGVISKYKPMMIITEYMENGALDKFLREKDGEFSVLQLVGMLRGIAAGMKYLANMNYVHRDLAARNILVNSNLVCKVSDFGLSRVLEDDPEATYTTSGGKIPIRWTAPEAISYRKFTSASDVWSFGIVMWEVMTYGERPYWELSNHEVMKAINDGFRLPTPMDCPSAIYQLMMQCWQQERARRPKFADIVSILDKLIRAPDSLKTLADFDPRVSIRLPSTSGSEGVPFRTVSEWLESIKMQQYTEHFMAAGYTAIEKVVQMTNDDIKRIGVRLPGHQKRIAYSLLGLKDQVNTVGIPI
Experimental: as §1

[16] = biological target: EPHA3 (Homo sapiens, UniProt P29320)
Experimental: as §1

[17] = biological target: EPHB1 (Homo sapiens, UniProt P54762)
Experimental: as §1

[18] = biological target: EPHB2 (Homo sapiens, UniProt P29323)
Experimental: as §1

[19] = biological target: Erk1 (Homo sapiens, UniProt P27361)
Experimental: as §1

[20] = biological target: FES (Homo sapiens, UniProt P07332)
Experimental: as §1

[21] = biological target: T3, FGFR1 (Homo sapiens, UniProt P11362)
T3 construct: purchased Carna Biosciences
Experimental: as §1

[22] = biological target: FGR (Homo sapiens, UniProt P09769)
Experimental: as §1

[23] = biological target: T4, FRK (Homo sapiens, UniProt P42685)
T4 construct: purchased Carna Biosciences
Experimental: as §1

[24] = biological target: GSK3β (Homo sapiens, UniProt P49841)
Experimental: as §1

[25] = biological target: T5, IGF1R (Homo sapiens, UniProt P08069)
T5 construct: purchased Carna Biosciences
Experimental: as §1

[26] = biological target: T6, INSR (Homo sapiens, UniProt P06213)
T6 construct: purchased Carna Biosciences
Experimental: as §1

[27] = biological target: T7, IRR (Homo sapiens, UniProt P14616)
T7 construct: purchased Carna Biosciences
Experimental: as §1

[28] = biological target: T8, ITK (Homo sapiens, UniProt Q08881)
T8 construct: purchased Carna Biosciences
Experimental: as §1

[29] = biological target: JNK1 (Homo sapiens, UniProt P45983)
Experimental: as §1

[30] = biological target: JNK2 (Homo sapiens, UniProt P45984)
Experimental: as §1

[31] = biological target: T9, KDR (Homo sapiens, UniProt P35968)
T9 construct: purchased Carna Biosciences
Experimental: as §1

[32] = biological target: T10, LYNb (Homo sapiens, UniProt P07948)
T10 construct: purchased Carna Biosciences
Experimental: as §1

[33] = biological target: T11, MINK (Homo sapiens, UniProt Q8N4C8)
T11 construct: purchased Carna Biosciences
Experimental: as §1

[34] = biological target: T12, NEK9 (Homo sapiens, UniProt Q8TD19)
T12 construct: purchased Carna Biosciences
Experimental: as §1

[35] = biological target: PKACα (Homo sapiens, UniProt P17612)
Experimental: as §1

[36] = biological target: PKCα (Homo sapiens, UniProt P17252)
Experimental: as §1

[37] = biological target: PLK1 (Homo sapiens, UniProt P53350)
Experimental: as §1

[38] = biological target: T13, PLK3 (Homo sapiens, UniProt Q9H4B4)
T13 construct: purchased Carna Biosciences
Experimental: as §1

[39] = biological target: T14, RON (Homo sapiens, UniProt Q04912)
T14 construct: purchased Carna Biosciences
T14 sequence (Q04912 25-1400): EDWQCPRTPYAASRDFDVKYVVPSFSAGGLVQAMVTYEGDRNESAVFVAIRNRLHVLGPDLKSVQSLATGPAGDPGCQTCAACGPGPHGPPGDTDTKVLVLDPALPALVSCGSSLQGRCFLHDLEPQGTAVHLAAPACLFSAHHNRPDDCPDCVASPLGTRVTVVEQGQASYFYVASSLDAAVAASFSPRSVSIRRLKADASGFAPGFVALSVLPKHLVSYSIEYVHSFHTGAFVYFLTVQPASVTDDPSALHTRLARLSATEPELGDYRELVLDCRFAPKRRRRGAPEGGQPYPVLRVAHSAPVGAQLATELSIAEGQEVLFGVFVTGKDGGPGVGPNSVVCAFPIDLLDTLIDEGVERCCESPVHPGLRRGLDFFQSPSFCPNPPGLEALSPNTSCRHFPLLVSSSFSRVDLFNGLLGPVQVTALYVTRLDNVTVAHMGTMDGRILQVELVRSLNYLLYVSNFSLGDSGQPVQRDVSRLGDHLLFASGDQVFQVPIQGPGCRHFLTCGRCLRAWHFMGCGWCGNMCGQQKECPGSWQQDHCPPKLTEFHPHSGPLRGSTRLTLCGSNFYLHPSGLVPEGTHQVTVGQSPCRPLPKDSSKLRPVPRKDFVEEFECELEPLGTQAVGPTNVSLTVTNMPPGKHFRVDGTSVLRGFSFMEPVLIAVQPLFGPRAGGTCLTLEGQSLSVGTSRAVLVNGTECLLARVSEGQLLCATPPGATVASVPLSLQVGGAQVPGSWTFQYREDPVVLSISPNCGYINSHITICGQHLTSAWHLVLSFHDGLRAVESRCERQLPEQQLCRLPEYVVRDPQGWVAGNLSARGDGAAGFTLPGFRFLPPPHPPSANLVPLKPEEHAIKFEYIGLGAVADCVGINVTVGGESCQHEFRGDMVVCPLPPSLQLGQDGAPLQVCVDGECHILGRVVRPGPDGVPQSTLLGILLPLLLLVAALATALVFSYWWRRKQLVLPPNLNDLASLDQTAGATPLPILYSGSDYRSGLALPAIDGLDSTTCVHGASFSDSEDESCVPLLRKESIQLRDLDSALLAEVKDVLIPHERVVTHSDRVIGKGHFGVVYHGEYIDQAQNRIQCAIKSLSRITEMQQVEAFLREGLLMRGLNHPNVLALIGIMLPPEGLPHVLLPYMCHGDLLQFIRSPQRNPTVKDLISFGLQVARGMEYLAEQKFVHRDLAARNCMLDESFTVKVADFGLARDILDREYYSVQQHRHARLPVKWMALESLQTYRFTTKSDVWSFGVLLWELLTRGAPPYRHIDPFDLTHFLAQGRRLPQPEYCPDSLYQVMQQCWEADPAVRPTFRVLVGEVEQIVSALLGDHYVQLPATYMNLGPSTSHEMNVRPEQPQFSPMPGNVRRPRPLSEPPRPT
Experimental: as §1

[40] = biological target: RSK3 (Homo sapiens, UniProt Q15349)
Experimental: as §1

[41] = biological target: T15, TIE2 (Homo sapiens, UniProt Q02763)
T15 construct: purchased Carna Biosciences
Experimental: as §1

[42] = biological target: T16, TSSK1 (Homo sapiens, UniProt Q9BXA7)
T16 construct: purchased Carna Biosciences
Experimental: as §1

[43] = biological target: YES (Homo sapiens, UniProt P07947)
Experimental: as §1

Chain of ABL (P00519 whole entry): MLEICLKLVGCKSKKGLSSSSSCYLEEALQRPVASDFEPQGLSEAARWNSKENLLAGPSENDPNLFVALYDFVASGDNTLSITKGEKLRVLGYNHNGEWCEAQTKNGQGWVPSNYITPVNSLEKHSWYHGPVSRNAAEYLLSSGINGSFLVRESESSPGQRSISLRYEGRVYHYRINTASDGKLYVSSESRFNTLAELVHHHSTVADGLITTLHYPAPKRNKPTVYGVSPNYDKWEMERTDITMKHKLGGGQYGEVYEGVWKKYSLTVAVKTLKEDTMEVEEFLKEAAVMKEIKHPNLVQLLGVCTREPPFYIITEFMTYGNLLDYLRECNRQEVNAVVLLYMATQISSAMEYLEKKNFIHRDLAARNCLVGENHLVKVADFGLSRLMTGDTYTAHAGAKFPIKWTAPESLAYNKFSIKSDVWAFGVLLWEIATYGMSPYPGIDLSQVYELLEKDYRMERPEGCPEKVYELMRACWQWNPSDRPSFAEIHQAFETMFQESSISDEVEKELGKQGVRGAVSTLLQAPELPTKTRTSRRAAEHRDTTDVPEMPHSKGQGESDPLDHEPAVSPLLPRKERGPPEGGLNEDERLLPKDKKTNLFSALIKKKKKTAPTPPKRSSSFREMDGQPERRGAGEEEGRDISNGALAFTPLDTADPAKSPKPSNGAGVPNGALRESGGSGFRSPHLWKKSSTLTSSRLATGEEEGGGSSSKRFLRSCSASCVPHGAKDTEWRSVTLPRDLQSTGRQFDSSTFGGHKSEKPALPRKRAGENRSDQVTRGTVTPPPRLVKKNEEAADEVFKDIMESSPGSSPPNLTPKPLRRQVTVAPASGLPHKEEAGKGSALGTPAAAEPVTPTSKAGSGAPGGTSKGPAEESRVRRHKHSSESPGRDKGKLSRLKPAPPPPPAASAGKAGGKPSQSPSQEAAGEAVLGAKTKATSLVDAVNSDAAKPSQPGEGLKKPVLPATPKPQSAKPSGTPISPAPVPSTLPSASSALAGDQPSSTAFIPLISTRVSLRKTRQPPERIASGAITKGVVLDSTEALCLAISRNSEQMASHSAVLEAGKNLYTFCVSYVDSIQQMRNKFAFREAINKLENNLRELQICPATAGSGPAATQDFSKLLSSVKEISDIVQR

C[C@@H](N)COc1ccc(-c2cnc3ccc(N[C@H](C)c4cccc(F)c4)nn23)cc1.O=C(O)CCCCC(=O)O [DS-6051b]
inhibition at 0.2 µM [1]: -1.1% | inhibition at 0.2 µM [2]: 18% | inhibition at 0.2 µM [3]: -15.7% | inhibition at 0.2 µM [4]: -4.8% | inhibition at 0.2 µM [5]: 17.9% | inhibition at 0.2 µM [6]: -6.7% | inhibition at 0.2 µM [7]: 2.3% | inhibition at 0.2 µM [8]: -1% | inhibition at 0.2 µM [9]: -8.9% | inhibition at 0.2 µM [10]: -1.1% | inhibition at 0.2 µM [11]: 1% | inhibition at 0.2 µM [12]: -3.3% | inhibition at 0.2 µM [13]: 0.7% | inhibition at 0.2 µM [14]: 4.8% | inhibition at 0.2 µM [15]: -2.2% | inhibition at 0.2 µM [16]: 2.8% | inhibition at 0.2 µM [17]: -3.5% | inhibition at 0.2 µM [18]: -1.7% | inhibition at 0.2 µM [19]: -4.9% | inhibition at 0.2 µM [20]: 5.1% | inhibition at 0.2 µM [21]: 3.4% | inhibition at 0.2 µM [22]: 6.3% | inhibition at 0.2 µM [23]: 8.1% | inhibition at 0.2 µM [24]: -23.2% | inhibition at 0.2 µM [25]: 3.4% | inhibition at 0.2 µM [26]: 9.4% | inhibition at 0.2 µM [27]: 16.8% | inhibition at 0.2 µM [28]: -2.5% | inhibition at 0.2 µM [29]: -3.3% | inhibition at 0.2 µM [30]: -5.1% | inhibition at 0.2 µM [31]: -5.4% | inhibition at 0.2 µM [32]: 4.8% | inhibition at 0.2 µM [33]: -2.2% | inhibition at 0.2 µM [34]: -3.5% | inhibition at 0.2 µM [35]: -7% | inhibition at 0.2 µM [36]: 2% | inhibition at 0.2 µM [37]: -9.2% | inhibition at 0.2 µM [38]: -3.3% | inhibition at 0.2 µM [39]: 9.2% | inhibition at 0.2 µM [40]: -3.2% | inhibition at 0.2 µM [41]: -2.2% | inhibition at 0.2 µM [42]: -2.6% | inhibition at 0.2 µM [43]: 9%
